Source: paper PMC9596378, “Discovery and molecular basis of subtype-selective cyclophilin inhibitors” (Nature Chemical Biology, 2022)
Where “and” joins values, the source holds several entries; their conditions need not be identical. Equal entries are not always repeated. Entries after “also recorded” stand apart in the source; their conditions may differ.

Legend:
CypD = CypD (Homo sapiens, UniProt P30405); experiment: Chymotrypsin coupled prolyl-isomerase assay; details: read-out: Wild-Type Cyclophilin Prolyl Isomerase Inhibition IC50 Values, CypD; wild-type CypD
CypD, sequence (P30405 45-207): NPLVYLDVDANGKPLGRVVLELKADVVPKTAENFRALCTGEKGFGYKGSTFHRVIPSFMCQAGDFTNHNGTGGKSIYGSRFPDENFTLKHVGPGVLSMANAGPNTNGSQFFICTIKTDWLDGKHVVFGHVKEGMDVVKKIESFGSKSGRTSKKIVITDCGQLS
Description: Five microliters of compound pre-dissolved in 5% DMSO/assay buffer was then added to appropriate wells and incubated at 2–3 °C for 5 min. Five microliters of 0.5 mM α-chymotrypsin from bovine pancreas (Type II, lyophilized powder, Millipore-Sigma) in 20% 1 mM HCl/Assay Buffer was then added to each well and incubated at 2–3 °C for 5 min. The plate was then quickly transferred to a FLIPR Tetra High-Throughput Cellular Screening System (Molecular Devices). Using the internal liquid handling system of the FLIPR, 1 µL 0.5 mM Suc-AAPF-AMC (Chymotrypsin Substrate II, Millipore-Sigma) dissolved in 0.55 M LiCl/2,2,2-trifluoroethanol was added to each well, which was then mixed for 5 s, followed by immediate fluorescence measurements every 1 s for 330 s using a 360–380 nm excitation LED module and a 400–460 nm emission filter. […] Raw fluorescence data was analyzed by non-linear regression analysis with Prism v.9 by fitting one-phase association curves to each well. […] Rate constants calculated for each well (s^−1) were then normalized to substrate only (no prolyl-isomerase) and enzyme + substrate only controls.

HeLa cells [1] = experiment: Fluorescence microscopy of Cy5-conjugated compounds; format: cell-based, human
Description: Cells were seeded into 96-well, black, clear-bottom, TC-treated plates, in DMEM supplemented with 10% FBS 24 h prior at a density where wells were ~80% confluent at the time of the experiment. Medium was removed and cells were then stained with 50 µL mixture containing Cy5-labeled compound (6 µM) in Kreb’s ringer solution HEPES buffered pH 7.2 (KRB), for 1 h at 37 °C. Then, 50 µL Hoechst 33342 (8 µM) and Mitotracker Green FM (0.1 µM) in KRB was added directly to wells containing cells and incubated for 15 min at 37 °C. Medium was removed and cells were washed twice with 100 µL KRB. Cells were then kept adherent to the wells in 100 µL KRB for imaging. Fluorescence microscopy was conducted on an Opera Phenix Plus High-Content Screening System, using Alexa 488, Alexa 647, and Hoescht 33342 channels. Images were analyzed using Harmony v.4.9.

[2] = In vitro ester pro-drug stability, buffer only; format: in vitro ADME; details: 8 h, 6 µM, pH 7.4
Description: (§1) In PCR tubes, ester compound (6 µM) and either buffer only, CES1 (0.25 µM), or CES2 (0.25 µM) was diluted in 100 mM Tris-HCl buffer, pH 7.4, with a final DMSO concentration of 1%. Samples were maintained on a PCR block at 37 °C for 8 h. After incubation, samples were diluted with 20 µL acetonitrile and analyzed by LC–MS at Harvard’s Center for Mass Spectroscopy. Di-ester, mono-ester, and di-acid abundances were quantified by total ion count of the primary isotope and the three compounds were summed and each one expressed as a fraction of the total sum.

CES1 = target: T1, CES1 (Homo sapiens, UniProt P23141); experiment: In vitro esterase activity on ester pro-drugs; format: in vitro ADME; parameters: unit not given here; details: CES1 (9b); three replicate columns
T1 construct: purchased R&D Systems
T1 sequence (P23141 18-567): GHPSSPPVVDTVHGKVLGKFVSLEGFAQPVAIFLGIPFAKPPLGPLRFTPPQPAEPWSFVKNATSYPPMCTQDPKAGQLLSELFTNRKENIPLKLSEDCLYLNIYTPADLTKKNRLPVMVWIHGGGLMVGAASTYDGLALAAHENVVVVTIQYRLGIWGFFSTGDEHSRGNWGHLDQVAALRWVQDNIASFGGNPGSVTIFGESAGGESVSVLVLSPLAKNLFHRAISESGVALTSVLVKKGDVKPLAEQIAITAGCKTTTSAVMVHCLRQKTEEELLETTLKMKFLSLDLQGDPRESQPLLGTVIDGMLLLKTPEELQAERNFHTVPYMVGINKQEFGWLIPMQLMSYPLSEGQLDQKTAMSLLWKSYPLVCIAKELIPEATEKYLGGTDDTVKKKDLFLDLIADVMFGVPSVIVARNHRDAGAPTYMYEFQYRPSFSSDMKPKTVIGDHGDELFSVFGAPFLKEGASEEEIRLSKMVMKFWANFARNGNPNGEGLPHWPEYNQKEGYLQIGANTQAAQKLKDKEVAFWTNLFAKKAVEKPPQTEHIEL
Description: as §1

CES2 = target: T2, CES2 (Homo sapiens, UniProt O00748); experiment: In vitro esterase activity on ester pro-drugs; format: in vitro ADME; parameters: unit not given here; details: CES2 (9c); three replicate columns
T2 construct: purchased R&D Systems
T2 sequence (O00748 27-559): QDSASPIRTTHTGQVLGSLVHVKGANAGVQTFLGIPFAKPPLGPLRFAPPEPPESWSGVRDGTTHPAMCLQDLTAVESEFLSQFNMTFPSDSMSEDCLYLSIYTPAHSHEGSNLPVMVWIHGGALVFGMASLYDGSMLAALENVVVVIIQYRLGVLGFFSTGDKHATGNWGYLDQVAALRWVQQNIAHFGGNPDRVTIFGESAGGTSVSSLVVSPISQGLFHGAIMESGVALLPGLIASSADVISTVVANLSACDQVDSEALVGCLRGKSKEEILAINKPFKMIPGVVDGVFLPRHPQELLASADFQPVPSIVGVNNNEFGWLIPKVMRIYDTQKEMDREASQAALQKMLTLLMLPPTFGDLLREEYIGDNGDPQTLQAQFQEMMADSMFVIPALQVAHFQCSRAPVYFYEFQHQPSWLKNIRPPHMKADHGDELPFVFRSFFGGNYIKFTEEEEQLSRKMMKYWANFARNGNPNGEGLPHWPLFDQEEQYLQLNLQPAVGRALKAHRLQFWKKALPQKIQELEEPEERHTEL
Description: as §1

A549 cells = experiment: Cellular esterase activity on ester pro-drugs; format: in vitro ADME, human; parameters: Di-ester: unit not given here; details: for intracellular conversion to di-acid (in words): A549, HeLa, HEK293T, HepG2, MEFs; for Di-ester: A549 intracellular (9d), three replicate columns
Description: (§2) Cells were seeded in 96-well, clear, flat-bottom, TC-treated plates in DMEM supplemented with 10% FBS for HEK293T, HeLa, and MEFs, F-12K supplemented with 10% FBS for A549, or MEM supplemented with 10% FBS for HepG2. Cells were seeded 24 h prior at a density where wells were ~70% confluent at the time of the experiment. Medium was removed and cells were incubated with 100 µL mixture containing each Cy5-conjugated compound (6 µM) in their respective medium at 1% DMSO for 48 h (36 h for HepG2) at 37 °C at 5% CO2. Supernatant was removed, and cells were washed twice with 100 µL PBS pH 7.4 (Gibco). Cells were then lysed for 15 min with 30 µL 10 mM Tris-HCl pH 8.0 buffer containing 0.05% SDS. Lysates were diluted with 100 µL acetonitrile and filtered. Lysates were analyzed by LC–MS at Harvard’s Center for Mass Spectroscopy. Di-ester, mono-ester, and di-acid abundances were quantified by total ion count of the primary isotope, and the three compounds were summed and each one expressed as a fraction of the total sum.

HEK293T cells = experiment: Cellular esterase activity on ester pro-drugs; format: in vitro ADME, human; parameters: unit not given here; details: HEK293T intracellular (9f); three replicate columns
Description: as §2

HeLa cells [3] = experiment: Cellular esterase activity on ester pro-drugs; format: in vitro ADME, human; parameters: unit not given here; details: Hela intracellular (9e); three replicate columns
Description: as §2

MEFs = experiment: Cellular esterase activity on ester pro-drugs; format: in vitro ADME, mouse; parameters: unit not given here; details: SV40 MEF intracellular (9g); three replicate columns
Description: as §2

HepG2 cells = experiment: Cellular esterase activity on ester pro-drugs; format: in vitro ADME, human; parameters: unit: %; details: HepG2 intracellular (9h); three replicate columns
Description: as §2

Row | IC50 (CypD) | Di-acid [2] | Di-ester [2] | Mono-ester [2] | Di-ester (CES1) | Di-ester (CES2) | Di-ester (A549 cells) | Di-ester (HEK293T cells) | Di-ester (HeLa cells [3]) | Di-ester (MEFs) | Di-ester (HepG2 cells) | SMILES | plasma membrane permeability / mitochondrial localization (in words) (HeLa cells [1]) | intracellular conversion to di-acid (in words) (A549 cells)
1 | > 2000 nM | 0 | 100 | 0 | 13 and 14 and 16 | 30 and 35 and 21 | 0 (2×) and 1 | 9 and 11 and 8 | 1 | 8 and 6 and 7 | 45 and 44 and 43 | CCOC(=O)C(Cc1ccc(-c2ccc(CC3NC(=O)C4(Cc5ccccc5)CCCN(C4)C(=O)C=CC(=O)NCCC(C(=O)NCCNC(=O)CCCCCN4C(=CC=CC=CC5=[N+](C)c6ccccc6C5(C)C)C(C)(C)c5ccccc54)NC(=O)Cc4ccccc4CNC3=O)cc2)cc1)C(=O)OCC (centres unmarked) [Compound B52-Et-Cy5] | good mitochondrial localization; also recorded: good plasma membrane permeability | readily converted to the corresponding di-acids intracellularly
2 | > 2000 nM | 0 | 100 | 0 | 12 and 10 and 13 | 21 (2×) and 11 | 18 and 14 and 21 | 74 (2×) and 72 | 20 and 12 (2×) | 36 and 40 and 39 | 67 and 68 (2×) | CCOC(=O)CC(CC(=O)OCC)c1ccc(-c2ccc(CC3NC(=O)C4(Cc5ccccc5)CCCN(C4)C(=O)C=CC(=O)NCCC(C(=O)NCCNC(=O)CCCCCN4C(=CC=CC=CC5=[N+](C)c6ccccc6C5(C)C)C(C)(C)c5ccccc54)NC(=O)Cc4ccccc4CNC3=O)cc2)cc1 (centres unmarked) [Compound B53-Et-Cy5] | good mitochondrial localization; also recorded: good plasma membrane permeability | readily converted to the corresponding di-acids intracellularly
